Patent publication US11560385B2, “Proteasome activity enhancing compounds” (Proteostasis Therapeutics, Inc., priority 2018, dated 2023)

Each compound was assayed against USP14 (Homo sapiens (Human), UniProt P54578) (assay: Usp14 inhibition assay (Example 57B, B-series compounds)). Settings: IC50 class; average value from a minimum of two experimental determinations.
Format: biochemical
From the text: Example 57B: Usp14 Inhibition Assay
The IC50 values in the Table below represent the average value from a minimum of two experimental determinations.

Sequence of USP14 (P54578 whole entry, looked up): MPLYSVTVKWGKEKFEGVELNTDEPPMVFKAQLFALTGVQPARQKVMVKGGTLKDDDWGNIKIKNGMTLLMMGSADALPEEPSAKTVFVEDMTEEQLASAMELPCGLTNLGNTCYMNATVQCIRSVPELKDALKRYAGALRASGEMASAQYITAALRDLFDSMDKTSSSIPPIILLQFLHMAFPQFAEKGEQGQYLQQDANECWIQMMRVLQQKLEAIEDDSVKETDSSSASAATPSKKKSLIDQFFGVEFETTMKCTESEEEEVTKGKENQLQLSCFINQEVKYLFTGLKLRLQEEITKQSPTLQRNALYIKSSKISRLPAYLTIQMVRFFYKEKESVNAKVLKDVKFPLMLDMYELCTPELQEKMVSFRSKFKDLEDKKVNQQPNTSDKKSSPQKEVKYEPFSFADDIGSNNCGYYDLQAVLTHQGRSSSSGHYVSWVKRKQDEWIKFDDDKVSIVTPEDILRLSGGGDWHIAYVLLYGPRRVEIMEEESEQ

Cc1c(Cl)c(C(=O)CN2C3CCC2[C@@H](O)C3)c(C)n1-c1ccc(C#N)cc1 (mixture of isomers) [Example 77B, (±)-4-(3-Chloro-4-(2-((2R)-2-hydroxy-7-azabicyclo[2.2.1]heptan-7-yl)acetyl)-2,5-dimethyl-1H-pyrrol-1-yl)benzonitrile] and Cc1nc(Cc2c(Br)c(C(=O)CN3C4CCC3[C@@H](O)C4)c(C)n2-c2ccc(C#N)cc2)cs1 (mixture of isomers) [Example 129B, (±)-4-(3-Bromo-4-(2-((2R)-2-hydroxy-7-azabicyclo[2.2.1]heptan-7-yl)acetyl)-5-methyl-2-((2-methylthiazol-4-yl)methyl)-1H-pyrrol-1-yl)benzonitrile] fall in the same range of IC50: 50 to 500 nM for the first, 50 to 500 nM for the second.

Compared with Cc1cc(C(=O)CN2C3CCC2(CO)CC3)c(C)n1-c1ccc(C#N)cc1 [Example 126B, 4-(3-(2-(1-(Hydroxymethyl)-7-azabicyclo[2.2.1]heptan-7-yl)acetyl)-2,5-dimethyl-1H-pyrrol-1-yl)benzonitrile], Cc1cc(C(=O)CN2C3CCC2CC3)c(C)n1-c1ccc(C#N)cc1 [Example 63B, 4-(3-(2-(7-Azabicyclo[2.2.1]heptan-7-yl)acetyl)-2,5-dimethyl-1H-pyrrol-1-yl)benzonitrile] is higher in IC50: 50 to 500 nM for the first, over 500 nM for the second. The first is the more potent here.

Compared with Cc1c(C(=O)CN2[C@H]3CC[C@@H]2[C@@H](C)C3)cc(CC2COC2)n1-c1ccc(C#N)cc1 (racemic) [Example 56B, (±)-4-(2-Methyl-3-(2-((1R,2S,4S)-2-methyl-7-azabicyclo[2.2.1]heptan-7-yl)acetyl)-5-(oxetan-3-ylmethyl)-1H-pyrrol-1-yl)benzonitrile], Cc1c(C(=O)CN2[C@@H]3CC[C@H]2[C@@H](O)C3)cc(CCCC2COC2)n1-c1ccc(C#N)cc1 (racemic) [Example 22B, (±)-4-(3-(2-((1R,2R,4S)-2-Hydroxy-7-azabicyclo[2.2.1]heptan-7-yl)acetyl)-2-methyl-5-(3-(oxetan-3-yl)propyl)-1H-pyrrol-1-yl)benzonitrile] is lower in IC50: 50 to 500 nM for the first, under 50 nM for the second. The second is the more potent here.

Cc1c(C(=O)CN2C3CCC2[C@@H](O)C3)cc(CCCCS(C)(=O)=O)n1-c1ccc(C#N)cc1 (mixture of isomers) [Example 8B, (±)-4-(3-(2-((1R,2R,4S)-2-Hydroxy-7-azabicyclo[2.2.1]heptan-7-yl)acetyl-2-methyl-5-(4-(methylsulfonyl)butyl)-1H-pyrrol-1-yl)benzonitrile] and COCCCCc1cc(C(=O)CN2[C@H]3CC[C@@H]2[C@H](O)C3)c(C)n1-c1ccc(C#N)cc1 (stereo in doubt) [Example 13B, (rel)-4-(3-(2-((1S,2S,4R)-2-Hydroxy-7-azabicyclo[2.2.1]heptan-7-yl)acetyl)-5-(4-methoxybutyl)-2-methyl-1H-pyrrol-1-yl)benzonitrile] cannot be ordered by IC50: under 50 nM for the first, under 50 nM for the second.

First: Cc1nc(Cc2cc(C(=O)CN3C4CCC3[C@@H](O)C4)c(C)n2-c2ccc(C#N)cc2)cs1 (mixture of isomers) [Example 41B, (±)-4-(3-(2-((2R)-2-Hydroxy-7-azabicyclo[2.2.1]heptan-7-yl)acetyl)-2-methyl-5-((2-methylthiazol-4-yl)methyl)-1H-pyrrol-1-yl)benzonitrile]
Second: Cc1ncc(-c2cc(C(=O)CN3[C@@H]4CC[C@H]3[C@@H](O)C4)c(C)n2-c2ccc(C#N)cc2)s1 (racemic) [Example 147B, (±)-4-(3-(2-((1R,2R,4S)-2-Hydroxy-7-azabicyclo[2.2.1]heptan-7-yl)acetyl)-2-methyl-5-(2-methylthiazol-5-yl)-1H-pyrrol-1-yl)benzonitrile]
The IC50 of the first is lower: under 50 nM for the first, 50 to 500 nM for the second.

Cc1cc(C(=O)CN2C3CCCC2CC(O)C3)c(C)n1-c1ccc(C#N)cc1 [Example 86B, 4-(3-(2-((1R,3r,5S)-3-Hydroxy-9-azabicyclo[3.3.1]nonan-9-yl)acetyl)-2,5-dimethyl-1H-pyrrol-1-yl)benzonitrile] and Cc1cc(C(=O)CN2[C@H]3CCC[C@@H]2[C@H](O)C3)c(C)n1-c1ccc(C#N)cc1 (racemic) [Example 82B, (±)-4-(3-(2-((1S,5R,6R)-6-Hydroxy-8-azabicyclo[3.2.1]octan-8-yl)acetyl)-2,5-dimethyl-1H-pyrrol-1-yl)benzonitrile] fall in the same range of IC50: 50 to 500 nM for the first, 50 to 500 nM for the second.

Cc1cc(C(=O)CN2C3CCCC2CC(O)C3)c(C)n1-c1ccc(C#N)cc1 [Example 85B, 4-(3-(2-((1R,3s,5S)-3-Hydroxy-9-azabicyclo[3.3.1]nonan-9-yl)acetyl)-2,5-dimethyl-1H-pyrrol-1-yl)benzonitrile] and COC1C[C@H]2CC[C@H](C1)N2CC(=O)c1cc(C)n(-c2ccc(C#N)cc2)c1C (stereo partly drawn) [Example 88B, 4-(3-(2-((1R,3r,5S)-3-Methoxy-8-azabicyclo[3.2.1]octan-8-yl)acetyl)-2,5-dimethyl-1H-pyrrol-1-yl)benzonitrile] fall in the same range of IC50: 50 to 500 nM for the first, 50 to 500 nM for the second.

Compared with Cc1c(C(=O)CN2C3CCC2[C@@H](O)C3)cc(CCCC2(C)COC2)n1-c1ccc(C#N)cc1 (mixture of isomers) [Example 42B, (±)-4-(3-(2-((2R)-2-Hydroxy-7-azabicyclo[2.2.1]heptan-7-yl)acetyl)-2-methyl-5-(3-(3-methyloxetan-3-yl)propyl)-1H-pyrrol-1-yl)benzonitrile], Cc1c(C(=O)CN2[C@@H]3CC[C@H]2[C@@H](O)C3)cc(C(C)C)n1-c1ccc(C#N)cc1 (racemic) [Example 112B, (±)-4-(3-(2-((1R,2R,4S)-2-Hydroxy-7-azabicyclo[2.2.1]heptan-7-yl)acetyl)-5-isopropyl-2-methyl-1H-pyrrol-1-yl)benzonitrile] is higher in IC50: under 50 nM for the first, 50 to 500 nM for the second. The first is the more potent here.

First: Cc1c(C(=O)CN2[C@@H]3CC[C@H]2[C@@H](C)C3)cc(C#N)n1-c1ccc(C#N)cc1 (racemic) [Example 136B, (±)-1-(4-Cyanophenyl)-5-methyl-4-(2-((1R,2R,4S)-2-methyl-7-azabicyclo[2.2.1]heptan-7-yl)acetyl)-1H-pyrrole-2-carbonitrile]
Second: CO[C@H]1C[C@H]2CC[C@@H]1N2CC(=O)c1cc(C)n(-c2ccc(C#N)cc2)c1C (racemic) [Example 70B, (±)-4-(3-(2-((1R,2R,4S)-2-Methoxy-7-azabicyclo[2.2.1]heptan-7-yl)acetyl)-2,5-dimethyl-1H-pyrrol-1-yl)benzonitrile]
The IC50 of the first is lower: under 50 nM for the first, 50 to 500 nM for the second.

First: Cc1c(C(=O)CN2C3CC4CC2CC(C3)O4)cc(C#CCCC#N)n1-c1ccc(C#N)cc1 [Example 21B, 4-(3-(2-((1r,3r,5r,7r)-2-Oxa-6-azaadamantan-6-yl)acetyl)-5-(4-cyanobut-1-yn-1-yl)-2-methyl-1H-pyrrol-1-yl)benzonitrile]
Second: Cc1c(C(=O)CN2C3CCC2[C@@H](O)C3)cc(C2CC(F)C2)n1-c1ccc(C#N)cc1 (mixture of isomers) [Example 132B, (±)-4-(5-(3-Fluorocyclobutyl)-3-(2-((2R)-2-hydroxy-7-azabicyclo[2.2.1]heptan-7-yl)acetyl)-2-methyl-1H-pyrrol-1-yl)benzonitrile]
The IC50 of the first is higher: 50 to 500 nM for the first, under 50 nM for the second. The second is the more potent here.

First: Cc1c(C(=O)CN2[C@@H]3CC[C@H]2[C@@H](O)C3)cc(C2CCCCC2)n1-c1ccc(C#N)cc1 (racemic) [Example 111B, (±)-4-(5-Cyclohexyl-3-(2-((1R,2R,4S)-2-hydroxy-7-azabicyclo[2.2.1]heptan-7-yl)acetyl)-2-methyl-1H-pyrrol-1-yl)benzonitrile]
Second: Cc1cc(C(=O)CN2C3CCC2[C@@H](O)C3)c(C)n1-c1ccc(C#N)c(F)c1 (mixture of isomers) [Example 90B, (±)-2-Fluoro-4-(3-(2-((2R)-2-hydroxy-7-azabicyclo[2.2.1]heptan-7-yl)acetyl)-2,5-dimethyl-1H-pyrrol-1-yl)benzonitrile]
The IC50 of the first is higher: 50 to 500 nM for the first, under 50 nM for the second.
